Experimental data published in ChEMBL document CHEMBL3885861, “Open TG-GATES”.

Species on record: Rattus norvegicus
Experiment: Open TG-GATES - Regimen: Single
Format: toxicity, organism-based, Sprague-Dawley
Design: regimen Single, gender Male, age 6 weeks
Conditions: in vivo, po, route gavage; for KIDNEY_L / KIDNEY_R / KIDNEY_TOTAL: tissue Kidney; for ALP / ALT / BUN / CRE / DBIL / GLC / IP / K / Na / RALB / TBIL / TG / TP / gamma-GTP / PL: tissue Plasma; for LIVER: tissue Liver
[1] = 10 mg/kg, 3 h, tissue Blood, dose level Middle
[2] = 10 mg/kg, 3 h, dose level Middle
[3] = 10 mg/kg, 6 h, dose level Middle
[4] = 10 mg/kg, 6 h, tissue Blood, dose level Middle
[5] = 10 mg/kg, 9 h, dose level Middle
[6] = 10 mg/kg, 9 h, tissue Blood, dose level Middle
[7] = 10 mg/kg, 24 h, dose level Middle
[8] = 10 mg/kg, 24 h, tissue Blood, dose level Middle
[9] = 30 mg/kg, 3 h, tissue Blood, dose level High
[10] = 30 mg/kg, 6 h, tissue Blood, dose level High
[11] = 30 mg/kg, 9 h, tissue Blood, dose level High
[12] = 30 mg/kg, 24 h, dose level High
[13] = 30 mg/kg, 24 h, tissue Blood, dose level High

Compound: CNCCC(Oc1ccc(C(F)(F)F)cc1)c1ccccc1.Cl (centres undefined) [FLUOXETINE HYDROCHLORIDE]
- Bas [1]: 0%
- Eos [1]: 1.2%
- Ht [1]: 41.6%
- Lym [1]: 68.4%
- MCHC [1]: 32.1%
- Ret [1]: 8.7%
- WBC [1]: 85.2 x10_2/uL
- KIDNEY_L [2]: 1 g
- KIDNEY_R [2]: 1 g
- KIDNEY_TOTAL [2]: 2 g
- ALP [2]: 1509 IU/L
- ALT [2]: 36.6 IU/L
- BUN [2]: 13.8 mg/dL
- CRE [2]: 0.4 mg/dL
- DBIL [2]: 0.014 mg/dL
- GLC [2]: 201.4 mg/dL
- IP [2]: 10.3 mg/dL
- K [2]: 5.2 meq/L
- Na [2]: 138.6 meq/L
- RALB [2]: 4.1 g/dL
- TBIL [2]: 0.042 mg/dL
- TG [2]: 128.6 mg/dL
- TP [2]: 5.9 g/dL
- gamma-GTP [2]: 0 IU/L
- TERMINAL_BW [3]: 215.2 g
- Bas [4]: 0%
- Eos [4]: 1%
- Ht [4]: 40.8%
- Lym [4]: 70%
- MCH [4]: 21.9 pg
- MCHC [4]: 32.6%
- Ret [4]: 8.2%
- WBC [4]: 96.4 x10_2/uL
- KIDNEY_L [3]: 0.9 g
- KIDNEY_R [3]: 1 g
- KIDNEY_TOTAL [3]: 1.9 g
- LIVER [3]: 10 g
- ALP [3]: 1142 IU/L
- ALT [3]: 32.8 IU/L
- BUN [3]: 10.8 mg/dL
- CRE [3]: 0.4 mg/dL
- DBIL [3]: 0.008 mg/dL
- GLC [3]: 193.8 mg/dL
- IP [3]: 9.7 mg/dL
- K [3]: 4.9 meq/L
- Na [3]: 137.4 meq/L
- RALB [3]: 3.9 g/dL
- TBIL [3]: 0.038 mg/dL
- TG [3]: 85.8 mg/dL
- TP [3]: 5.4 g/dL
- gamma-GTP [3]: 1 IU/L
- TERMINAL_BW [5]: 214.8 g
- Bas [6]: 0%
- Eos [6]: 1%
- Ht [6]: 40.2%
- Lym [6]: 75.6%
- MCHC [6]: 32.5%
- Ret [6]: 7.8%
- WBC [6]: 95 x10_2/uL
- KIDNEY_L [5]: 1 g
- KIDNEY_R [5]: 1 g
- KIDNEY_TOTAL [5]: 1.9 g
- LIVER [5]: 9.2 g
- ALP [5]: 1045.4 IU/L
- ALT [5]: 28.8 IU/L
- BUN [5]: 10.6 mg/dL
- CRE [5]: 0.4 mg/dL
- DBIL [5]: 0.006 mg/dL
- GLC [5]: 191 mg/dL
- IP [5]: 10.8 mg/dL
- K [5]: 5 meq/L
- Na [5]: 137.9 meq/L
- PL [5]: 135 mg/dL
- RALB [5]: 3.8 g/dL
- TBIL [5]: 0.04 mg/dL
- TG [5]: 41.4 mg/dL
- TP [5]: 5.3 g/dL
- gamma-GTP [5]: 0.6 IU/L
- TERMINAL_BW [7]: 227.3 g
- Bas [8]: 0%
- Eos [8]: 1%
- Ht [8]: 41.2%
- Lym [8]: 76.2%
- MCHC [8]: 32.6%
- Ret [8]: 7.7%
- WBC [8]: 100.4 x10_2/uL
- KIDNEY_L [7]: 1 g
- KIDNEY_R [7]: 1 g
- KIDNEY_TOTAL [7]: 1.9 g
- LIVER [7]: 11 g
- ALP [7]: 1378 IU/L
- ALT [7]: 34.6 IU/L
- BUN [7]: 16.4 mg/dL
- CRE [7]: 0.4 mg/dL
- DBIL [7]: 0.01 mg/dL
- GLC [7]: 192.6 mg/dL
- IP [7]: 7.9 mg/dL
- K [7]: 5.1 meq/L
- Na [7]: 138.1 meq/L
- RALB [7]: 3.9 g/dL
- TBIL [7]: 0.034 mg/dL
- TG [7]: 152.6 mg/dL
- TP [7]: 5.5 g/dL
- gamma-GTP [7]: 1 IU/L
- TERMINAL_BW (30 mg/kg, 3 h, dose level High): 214.6 g
- Bas [9]: 0%
- Eos [9]: 1.2%
- Ht [9]: 39.9%
- Lym [9]: 67.4%
- MCHC [9]: 32.6%
- Ret [9]: 8.7%
- WBC [9]: 79.4 x10_2/uL
- KIDNEY_L (30 mg/kg, 3 h, dose level High): 0.9 g
- KIDNEY_R (30 mg/kg, 3 h, dose level High): 1 g
- KIDNEY_TOTAL (30 mg/kg, 3 h, dose level High): 1.9 g
- LIVER (30 mg/kg, 3 h, dose level High): 9.8 g
- ALP (30 mg/kg, 3 h, dose level High): 1364.6 IU/L
- ALT (30 mg/kg, 3 h, dose level High): 36.4 IU/L
- BUN (30 mg/kg, 3 h, dose level High): 10.6 mg/dL
- CRE (30 mg/kg, 3 h, dose level High): 0.4 mg/dL
- DBIL (30 mg/kg, 3 h, dose level High): 0.01 mg/dL
- GLC (30 mg/kg, 3 h, dose level High): 201.4 mg/dL
- IP (30 mg/kg, 3 h, dose level High): 10.1 mg/dL
- K (30 mg/kg, 3 h, dose level High): 4.4 meq/L
- Na (30 mg/kg, 3 h, dose level High): 138.6 meq/L
- RALB (30 mg/kg, 3 h, dose level High): 4.1 g/dL
- TBIL (30 mg/kg, 3 h, dose level High): 0.048 mg/dL
- TG (30 mg/kg, 3 h, dose level High): 77.8 mg/dL
- TP (30 mg/kg, 3 h, dose level High): 5.7 g/dL
- gamma-GTP (30 mg/kg, 3 h, dose level High): 0.2 IU/L
- TERMINAL_BW (30 mg/kg, 6 h, dose level High): 217.1 g
- Bas [10]: 0%
- Eos [10]: 1.2%
- Ht [10]: 42%
- Lym [10]: 73.2%
- MCHC [10]: 32.3%
- Ret [10]: 6.9%
- WBC [10]: 82.6 x10_2/uL
- KIDNEY_L (30 mg/kg, 6 h, dose level High): 0.9 g
- KIDNEY_R (30 mg/kg, 6 h, dose level High): 1 g
- KIDNEY_TOTAL (30 mg/kg, 6 h, dose level High): 1.9 g
- LIVER (30 mg/kg, 6 h, dose level High): 9.3 g
- ALP (30 mg/kg, 6 h, dose level High): 1193 IU/L
- ALT (30 mg/kg, 6 h, dose level High): 31 IU/L
- BUN (30 mg/kg, 6 h, dose level High): 9.2 mg/dL
- CRE (30 mg/kg, 6 h, dose level High): 0.4 mg/dL
- DBIL (30 mg/kg, 6 h, dose level High): 0.01 mg/dL
- GLC (30 mg/kg, 6 h, dose level High): 198.8 mg/dL
- IP (30 mg/kg, 6 h, dose level High): 9.9 mg/dL
- K (30 mg/kg, 6 h, dose level High): 5.2 meq/L
- Na (30 mg/kg, 6 h, dose level High): 137.7 meq/L
- PL (30 mg/kg, 6 h, dose level High): 134.4 mg/dL
- RALB (30 mg/kg, 6 h, dose level High): 3.8 g/dL
- TBIL (30 mg/kg, 6 h, dose level High): 0.038 mg/dL
- TG (30 mg/kg, 6 h, dose level High): 47.2 mg/dL
- TP (30 mg/kg, 6 h, dose level High): 5.4 g/dL
- gamma-GTP (30 mg/kg, 6 h, dose level High): 1 IU/L
- TERMINAL_BW (30 mg/kg, 9 h, dose level High): 211.4 g
- Bas [11]: 0%
- Eos [11]: 0.8%
- Ht [11]: 40.9%
- Lym [11]: 77.8%
- MCHC [11]: 32.4%
- Ret [11]: 7.1%
- WBC [11]: 90.6 x10_2/uL
- KIDNEY_L (30 mg/kg, 9 h, dose level High): 0.9 g
- KIDNEY_R (30 mg/kg, 9 h, dose level High): 1 g
- KIDNEY_TOTAL (30 mg/kg, 9 h, dose level High): 1.9 g
- LIVER (30 mg/kg, 9 h, dose level High): 9 g
- ALP (30 mg/kg, 9 h, dose level High): 1165 IU/L
- ALT (30 mg/kg, 9 h, dose level High): 28.8 IU/L
- BUN (30 mg/kg, 9 h, dose level High): 8.4 mg/dL
- CRE (30 mg/kg, 9 h, dose level High): 0.4 mg/dL
- DBIL (30 mg/kg, 9 h, dose level High): 0.01 mg/dL
- GLC (30 mg/kg, 9 h, dose level High): 202.8 mg/dL
- IP (30 mg/kg, 9 h, dose level High): 11.1 mg/dL
- K (30 mg/kg, 9 h, dose level High): 5.1 meq/L
- Na (30 mg/kg, 9 h, dose level High): 138.2 meq/L
- PL (30 mg/kg, 9 h, dose level High): 145.2 mg/dL
- RALB (30 mg/kg, 9 h, dose level High): 3.9 g/dL
- TBIL (30 mg/kg, 9 h, dose level High): 0.048 mg/dL
- TG (30 mg/kg, 9 h, dose level High): 53 mg/dL
- TP (30 mg/kg, 9 h, dose level High): 5.4 g/dL
- gamma-GTP (30 mg/kg, 9 h, dose level High): 0.2 IU/L
- TERMINAL_BW [12]: 222.3 g
- Bas [13]: 0%
- Eos [13]: 1%
- Ht [13]: 40.1%
- Lym [13]: 75.4%
- MCHC [13]: 32.6%
- Ret [13]: 7.8%
- WBC [13]: 81 x10_2/uL
- KIDNEY_L [12]: 1 g
- KIDNEY_R [12]: 1 g
- KIDNEY_TOTAL [12]: 2 g
- LIVER [12]: 10.5 g
- ALP [12]: 1406.6 IU/L
- ALT [12]: 31 IU/L
- CRE [12]: 0.4 mg/dL
- DBIL [12]: 0.01 mg/dL
- GLC [12]: 200 mg/dL
- IP [12]: 8 mg/dL
- K [12]: 5.2 meq/L
- Na [12]: 138.1 meq/L
- RALB [12]: 4 g/dL
- TBIL [12]: 0.028 mg/dL
- TG [12]: 100.4 mg/dL
- TP [12]: 5.7 g/dL
- gamma-GTP [12]: 1 IU/L
